Measurements published in ChEMBL document CHEMBL1144998, “C(8) substituted 1-azabicyclo[3.3.1]non-3-enes and C(8) substituted 1-azabicyclo[3.3.1]nonan-4-ones: novel muscarinic receptor antagonists” (J Med Chem, 2003).

Key:
[1] = target: Muscarinic acetylcholine receptor M3 (Homo sapiens, UniProt P20309); experiment: Binding affinity of compound was determined towards human Muscarinic acetylcholine receptor M3 using [3H]QNB radioligand
[2] = target: T1, Muscarinic acetylcholine receptor M1 (Homo sapiens, UniProt P11229); experiment: Binding affinity of compound was determined towards human Muscarinic acetylcholine receptor M1 using [3H]QNB radioligand
T1 sequence (P11229 whole entry): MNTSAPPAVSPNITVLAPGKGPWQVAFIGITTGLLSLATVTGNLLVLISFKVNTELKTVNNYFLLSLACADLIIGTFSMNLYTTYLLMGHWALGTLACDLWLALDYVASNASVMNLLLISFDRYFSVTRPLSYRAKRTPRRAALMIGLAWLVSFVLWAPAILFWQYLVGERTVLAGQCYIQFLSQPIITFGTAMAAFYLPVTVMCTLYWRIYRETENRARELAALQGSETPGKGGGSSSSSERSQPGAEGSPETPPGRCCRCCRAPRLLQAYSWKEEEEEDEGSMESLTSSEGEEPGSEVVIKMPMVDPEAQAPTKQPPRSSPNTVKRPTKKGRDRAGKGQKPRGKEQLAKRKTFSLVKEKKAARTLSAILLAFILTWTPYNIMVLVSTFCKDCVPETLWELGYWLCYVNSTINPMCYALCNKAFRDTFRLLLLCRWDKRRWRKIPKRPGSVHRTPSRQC

[3] = target: T2, Muscarinic acetylcholine receptor M2 (Homo sapiens, UniProt P08172); experiment: Binding affinity of compound was determined towards human Muscarinic acetylcholine receptor M2 using [3H]QNB radioligand
T2 sequence (P08172 whole entry): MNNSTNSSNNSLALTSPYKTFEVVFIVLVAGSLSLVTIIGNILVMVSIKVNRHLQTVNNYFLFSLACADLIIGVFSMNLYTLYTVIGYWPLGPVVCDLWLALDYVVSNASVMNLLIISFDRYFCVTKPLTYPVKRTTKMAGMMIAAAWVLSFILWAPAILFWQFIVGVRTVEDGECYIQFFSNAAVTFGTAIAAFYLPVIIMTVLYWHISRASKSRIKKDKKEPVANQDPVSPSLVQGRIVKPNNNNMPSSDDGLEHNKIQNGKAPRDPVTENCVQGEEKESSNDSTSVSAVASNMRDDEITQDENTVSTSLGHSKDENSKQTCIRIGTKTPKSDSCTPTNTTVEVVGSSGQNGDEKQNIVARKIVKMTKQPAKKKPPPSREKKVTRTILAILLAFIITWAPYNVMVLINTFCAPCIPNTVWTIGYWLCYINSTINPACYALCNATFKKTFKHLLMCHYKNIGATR

[4] = target: T3, Muscarinic acetylcholine receptor M4 (Homo sapiens, UniProt P08173); experiment: Binding affinity of compound was determined towards human Muscarinic acetylcholine receptor M4 using [3H]QNB radioligand
T3 sequence (P08173 whole entry): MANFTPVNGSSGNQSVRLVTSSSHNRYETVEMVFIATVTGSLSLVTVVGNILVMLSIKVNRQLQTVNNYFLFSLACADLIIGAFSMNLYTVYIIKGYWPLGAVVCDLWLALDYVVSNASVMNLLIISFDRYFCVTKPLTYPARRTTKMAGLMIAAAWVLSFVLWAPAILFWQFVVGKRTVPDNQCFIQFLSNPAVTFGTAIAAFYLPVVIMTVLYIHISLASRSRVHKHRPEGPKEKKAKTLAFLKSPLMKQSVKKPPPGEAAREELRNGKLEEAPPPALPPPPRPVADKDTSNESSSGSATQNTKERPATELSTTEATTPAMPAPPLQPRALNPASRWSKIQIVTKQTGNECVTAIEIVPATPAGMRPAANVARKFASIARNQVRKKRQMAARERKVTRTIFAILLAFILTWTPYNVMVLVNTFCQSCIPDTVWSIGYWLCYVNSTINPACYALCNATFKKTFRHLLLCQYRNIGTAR

[5] = target: T4, Muscarinic acetylcholine receptor M5 (Homo sapiens, UniProt P08912); experiment: Binding affinity of compound was determined towards human Muscarinic acetylcholine receptor M5 using [3H]QNB radioligand
T4 sequence (P08912 whole entry): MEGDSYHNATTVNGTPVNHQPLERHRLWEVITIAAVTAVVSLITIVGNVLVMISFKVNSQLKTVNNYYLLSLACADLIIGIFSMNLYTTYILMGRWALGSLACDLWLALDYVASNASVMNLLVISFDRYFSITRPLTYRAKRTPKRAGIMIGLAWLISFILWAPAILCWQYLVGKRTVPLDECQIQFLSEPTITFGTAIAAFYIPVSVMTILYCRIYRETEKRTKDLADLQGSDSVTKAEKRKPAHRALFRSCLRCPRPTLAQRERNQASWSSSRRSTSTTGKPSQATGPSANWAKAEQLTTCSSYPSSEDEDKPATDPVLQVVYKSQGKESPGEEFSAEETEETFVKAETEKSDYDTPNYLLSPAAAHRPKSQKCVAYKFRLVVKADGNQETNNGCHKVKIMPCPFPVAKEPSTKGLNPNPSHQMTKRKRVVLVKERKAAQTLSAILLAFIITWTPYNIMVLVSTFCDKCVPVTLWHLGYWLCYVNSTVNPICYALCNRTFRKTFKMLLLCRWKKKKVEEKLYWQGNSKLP

Muscarinic acetylcholine receptor M3, sequence (P20309 whole entry): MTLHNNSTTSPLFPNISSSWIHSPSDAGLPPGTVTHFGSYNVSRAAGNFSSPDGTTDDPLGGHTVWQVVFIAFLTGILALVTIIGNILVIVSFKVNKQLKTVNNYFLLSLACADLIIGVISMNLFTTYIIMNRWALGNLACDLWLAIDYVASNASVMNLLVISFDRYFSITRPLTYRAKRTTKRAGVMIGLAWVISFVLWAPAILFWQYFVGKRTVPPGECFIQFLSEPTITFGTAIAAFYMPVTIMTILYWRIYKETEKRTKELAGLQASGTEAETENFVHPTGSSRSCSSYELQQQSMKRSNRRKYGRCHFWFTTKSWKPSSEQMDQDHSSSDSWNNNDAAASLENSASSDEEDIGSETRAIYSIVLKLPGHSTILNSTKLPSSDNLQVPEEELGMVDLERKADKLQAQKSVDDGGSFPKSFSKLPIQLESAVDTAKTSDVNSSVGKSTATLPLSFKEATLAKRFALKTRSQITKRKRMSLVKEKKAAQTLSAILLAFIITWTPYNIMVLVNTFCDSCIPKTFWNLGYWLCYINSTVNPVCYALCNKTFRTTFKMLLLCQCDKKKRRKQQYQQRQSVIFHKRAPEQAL

CCO/C(O)=C1\CN2CCCC(C2)C1=O (configuration not stated)
Ki [1]: 1.5 µM | Ki [2]: 1.2 µM | Ki [3]: 1.6 µM | Ki [4]: 2.6 µM | Ki [5]: 0.98 µM

CCO/C(O)=C1\CN2CC(CCC2COCc2ccccc2)C1=O (stereo in doubt; 3)
Ki [1]: 0.84 µM | Ki [2]: 0.25 µM | Ki [3]: 0.08 µM | Ki [4]: 0.27 µM | Ki [5]: 0.56 µM

CCO/C(O)=C1\CN2CC(CCC2COCc2ccccc2)C1=O (stereo in doubt; 4)
Ki [1]: 7.5 µM | Ki [2]: 6.6 µM | Ki [3]: 4.1 µM | Ki [4]: 11 µM | Ki [5]: 3 µM

CCO/C(O)=C1\CN2CC(CCC2CN(C)C)C1=O (stereo in doubt; 5)
Ki [1]: > 100 µM | Ki [2]: > 100 µM | Ki [3]: 86 µM | Ki [4]: > 100 µM | Ki [5]: > 100 µM

CCO/C(O)=C1\CN2CC(CCC2CN(C)C)C1=O (stereo in doubt; 6)
Ki [1]: 37 µM | Ki [3]: > 100 µM
